Values of other authors, collected in patent US20260130963A1, “COMPOSITIONS COMPRISING RED YEAST RICE” (Meda Pharma S.p.A., priority 2021, published 2026).
In brackets after ≈: the same amount, converted by molar mass.

Legend:
[1] = “low solubility/high permeability”
[2] = in vivo

CC[C@H](C)C(=O)O[C@H]1C[C@@H](C)C=C2C=C[C@H](C)[C@H](CC[C@@H]3C[C@@H](O)CC(=O)O3)[C@H]21 [Lovastatin]
BCS classification [1]: BCS Class II | half-life [2]: 1 to 2 h | water solubility: 0.4 µg/mL (≈ 0.989 µM)
